“And” between values parts separate entries of the source, which are not always exact repeats. Identical values can stand only once.
Tests used:
[1] = system: MK-801 binding site in the NMDA channel; assay: [3H]MK-801 displacement binding in homogenate in the presence of NMDA and Gly; details: for Hill slope value: dose-response of [3H]MK-801 binding; for displacement of [3H]MK-801: NMDA (100 μM) and Gly (100 μM), 5 nM [3H]MK-801, relative to total binding
Experimental: Now referring to FIG. 3, an example graph 300 that illustrates that at least a subset of the compounds described above have an affinity for the MK-801 binding site in the NMDA channel is presented. More particularly, some triquinylamine compounds may have an affinity for the MK-801 binding site in the NMDA channel. The triquinane-derived azatricycloundecane compounds 100, 102, 108, 116, and 118 (FIGS. 1a, 1b, 1e, 1i, and 1j, respectively) were tested for an ability to displaced labeled MK-801, and the results of such testing are shown in FIG. 3. The graph 300 also illustrates total binding of radiolabeled MK-801 (Total) and non-specific binding of unlabelled MK-801 (NS). […] Specific [^3H]MK-801 binding to the homogenate can be estimated by subtracting non-specific binding (NS) obtained in the presence of 100 μM unlabeled MK-801 from the total binding. Specific binding represented 75% of the total binding and non-specific binding only 25% of total binding at 5 nM [^3H]MK-80 1. Unlabeled MK-80 1 used to determine the non-specific binding also served as a reference compound. NMDA-stimulated displacement for each tested compound was calculated as the difference between the measured value for the labeled MK-801 in the presence of each test compound, and the total binding, although the purpose of the graph 300 represents only the non-specific binding for that particular compound. The compound 118 displaced [^3H]MK-801 by 41.09±4.1%. For the compounds 116, 108, 100, and 102, respectively, there was no statistically significant displacement of [^3H]MK-801, and displacement values were calculated to be 16.93±4.1%, 14.35±7.9%, 20.85±11.7%, and 9.28±6.17%, respectively. Statistical significance compared to total binding in a t-test is (*) p<0.05, (**) p<0.001.
Referring now to FIG. 4, an example graph 400 that illustrates dose-dependent effect of compound 118 shown in FIG. 1j on [^3H]MK-801 binding in the presence of NMDA (100 μM) and Gly (100 μM). More particularly, the graph 400 depicts results of a dose-response curve fitting that was performed to determine the IC50 value for the compound 118. […] The Hill slope values for compounds with high-affinity as NMDA antagonists (MK-801, Memantine, and NGP1-01) are near unity, with lower potency compounds having greater Hill slop values. The Hill slope value for the compound 118 was −1.157±0.052.

L-type calcium channel = assay: IC50 with respect to the L-type calcium channel; format: biochemical

| Compound | Hill slope value [1] | IC50 (L-type calcium channel) | further results |
| --- | --- | --- | --- |
| C[C@]12N[C@H](Cc3ccccc31)c1ccccc12 [MK-801, reference compound] | near unity | – | – |
| CC12CC3CC(C)(C1)CC(N)(C3)C2 [Memantine, reference compound] | near unity | – | – |
| OC12C3C4CC5C6C4C1C6C(C53)N2CCc1ccccc1 (centres unmarked) [compound 104, N-phenylethyl-4-azahexacyclo[5.4.1.0^2,6.0.0^5,9.0^8,11]dodecan-3-ol] | – | 6.8 µM | – |
| CCCCCCCN1C2C3C4CC5C6C4C2C6C1(O)C53 (centres unmarked) [compound 106, N-heptyl-4-azahexacyclo[5.4.1.0^2,6.0.0^5,9.0^8,11]dodecan-3-ol] | – | 7.5 µM | – |
| c1ccc(CCNC23OC4C5C6CC(C7C6C4C72)C53)cc1 (centres unmarked) [compound 112, 8-phenylethylamino-8,11-oxapentacyclo[5.4.0.0^2,6.0^3,10.0^5,9]undecane] | – | 36.4 µM and 36.9 µM | – |
| c1ccc(CNC23OC4C5C6CC(C7C6C4C72)C53)cc1 (centres unmarked) [compound 120, 8-benzylamino-8,11-oxapentacyclo[5.4.0.0^2,6.0^3,10.0^5,9]undecane] | near unity | 60 µM | – |
| CCCCCCCN1CCC2CC3CCCC3C21 (centres unmarked) [compound 122, N-heptyl-3,1-azatricyclo[6.3.0.0^2,6]undecane] | – | 55 µM | – |
| N-(pyridin-4-ylmethyl)-3,11-azatricyclo[6.3.0.0^2,6]undecane [compound 102] | – | 4.9 µM | displacement of [3H]MK-801 [1]: 9.28±6.17% |
| N-benzyl-3,11-azatricyclo[6.3.0.0^2,6]undecane [compound 118] | −1.157±0.052 | – | displacement of [3H]MK-801 [1]: 41.09±4.1%; affinity for the NMDAR (comparison among triquinane-derived compounds) ([1]; among compounds 100, 102, 108, 116 and 118): highest affinity; IC50 ([1]; in the presence of NMDA (100 μM) and Gly (100 μM), dose-response curve fitting): 1.93 ± 0.018 µM |
| N-benzyl-4-azahexacyclo[5.4.1.0^2,6.0.0^5,9.0^8,11]dodecan-3-ol [compound 110] | – | 32.9 µM | – |
| N-cyclohexylmethyl-3,11-azatricyclo[6.3.0.0^2,6]undecane [compound 116] | – | 46 µM and 53 µM | displacement of [3H]MK-801 [1]: 16.93±4.1% |
